Legend:
Settings in all cases: 72 h
Caco-2 [1] = experiment: cell viability relative to DMSO; higher = less toxic
Calu-3 [2] = experiment: as above
HepG2 [3] = experiment: as above
U2OS [4] = experiment: as above
Vero E6 [5] = experiment: as above
Caco-2 [6] = experiment: relative viability EC50 (midpoint between 100% and the lowest measured viability); higher = less toxic
Calu-3 [7] = experiment: as above
HepG2 [8] = experiment: as above
U2OS [9] = experiment: as above
Vero E6 [10] = experiment: as above
Caco-2 [11] = experiment: drug sensitivity score (DSS) for viability; higher = more toxic; extreme values may be limits of the assay
Calu-3 [12] = experiment: as above
HepG2 [13] = experiment: as above
U2OS [14] = experiment: as above
Vero E6 [15] = experiment: as above

`COc1cc2nc(N3CCC(N4CCCCC4)CC3)nc(NC3CCCCCC3)c2cc1OC` [C-021] showed a cell viability (Caco-2 [1]; 1 nM) of 101%, a cell viability (Caco-2 [1]; 10 nM) of 101% and a cell viability (Caco-2 [1]; 100 nM) of 108%. It also gave a cell viability (Caco-2 [1]; 1000 nM) of 93.4%, a cell viability (Caco-2 [1]; 10000 nM) of 23.4% and a cell viability (Calu-3 [2]; 1 nM) of 98.4%. It also gave a cell viability (Calu-3 [2]; 10 nM) of 100%, a cell viability (Calu-3 [2]; 100 nM) of 94.7% and a cell viability (Calu-3 [2]; 1000 nM) of 90%. It also gave a cell viability (Calu-3 [2]; 10000 nM) of 4.2%, a cell viability (HepG2 [3]; 1 nM) of 108% and a cell viability (HepG2 [3]; 10 nM) of 93.7%. It also gave a cell viability (HepG2 [3]; 100 nM) of 99.4%, a cell viability (HepG2 [3]; 1000 nM) of 101% and a cell viability (HepG2 [3]; 10000 nM) of -0.2%. The cell viability (U2OS [4]; 1 nM) was 99.4%, the cell viability (U2OS [4]; 10 nM) was 98.7% and the cell viability (U2OS [4]; 100 nM) was 99.1%. The cell viability (U2OS [4]; 1000 nM) was 94.6%, the cell viability (U2OS [4]; 10000 nM) was 16.7% and the cell viability (Vero E6 [5]; 1 nM) was 96.8%. The cell viability (Vero E6 [5]; 10 nM) was 102%, the cell viability (Vero E6 [5]; 100 nM) was 99.1% and the cell viability (Vero E6 [5]; 1000 nM) was 97.5%. For the same compound, the cell viability (Vero E6 [5]; 10000 nM) was 0.8%, the “relative viability EC50” value (Caco-2 [6]) was 2.47 µM and the “relative viability EC50” value (Calu-3 [7]) was 2.31 µM. The “relative viability EC50” value (HepG2 [8]) was 3.24 µM, the “relative viability EC50” value (U2OS [9]) was 2.65 µM and the “relative viability EC50” value (Vero E6 [10]) was 2.98 µM. The drug sensitivity score (Caco-2 [11]) was 5.3, the drug sensitivity score (Calu-3 [12]) was 6.9 and the drug sensitivity score (HepG2 [13]) was 5.5. The drug sensitivity score (U2OS [14]) was 5.4 and the drug sensitivity score (Vero E6 [15]) was 5.9.
`Cc1sc(N)c(C(=O)c2cccc(C(F)(F)F)c2)c1C` showed a cell viability (Caco-2 [1]; 1 nM) of 97.7%, a cell viability (Caco-2 [1]; 10 nM) of 96.6% and a cell viability (Caco-2 [1]; 100 nM) of 97%. The cell viability (Caco-2 [1]; 1000 nM) was 95.6%, the cell viability (Caco-2 [1]; 10000 nM) was 90.6% and the cell viability (Calu-3 [2]; 1 nM) was 100%. The cell viability (Calu-3 [2]; 10 nM) was 91.9%, the cell viability (Calu-3 [2]; 100 nM) was 99.2% and the cell viability (Calu-3 [2]; 1000 nM) was 100%. It also gave a cell viability (Calu-3 [2]; 10000 nM) of 109%, a cell viability (HepG2 [3]; 1 nM) of 92.3% and a cell viability (HepG2 [3]; 10 nM) of 102%. For the same compound, the cell viability (HepG2 [3]; 100 nM) was 93.2%, the cell viability (HepG2 [3]; 1000 nM) was 96.7% and the cell viability (HepG2 [3]; 10000 nM) was 92.7%. The cell viability (U2OS [4]; 1 nM) was 97.9%, the cell viability (U2OS [4]; 10 nM) was 95.9% and the cell viability (U2OS [4]; 100 nM) was 99.9%. For the same compound, the cell viability (U2OS [4]; 1000 nM) was 94.9%, the cell viability (U2OS [4]; 10000 nM) was 102% and the cell viability (Vero E6 [5]; 1 nM) was 98.1%. For the same compound, the cell viability (Vero E6 [5]; 10 nM) was 96.9%, the cell viability (Vero E6 [5]; 100 nM) was 98% and the cell viability (Vero E6 [5]; 1000 nM) was 99.3%. The cell viability (Vero E6 [5]; 10000 nM) was 100%, the “relative viability EC50” value (Caco-2 [6]) was over 10 µM and the “relative viability EC50” value (Calu-3 [7]) was over 10 µM. The “relative viability EC50” value (HepG2 [8]) was over 10 µM, the “relative viability EC50” value (U2OS [9]) was over 10 µM and the “relative viability EC50” value (Vero E6 [10]) was over 10 µM. The drug sensitivity score (Caco-2 [11]) was 0, the drug sensitivity score (Calu-3 [12]) was 0 and the drug sensitivity score (HepG2 [13]) was 0. For the same compound, the drug sensitivity score (U2OS [14]) was 0 and the drug sensitivity score (Vero E6 [15]) was 0.
In the case of `CCN(CC)CCNC(=O)c1ccc(I)cc1` [I-BZA], the cell viability (Caco-2 [1]; 1 nM) is reported as 96.9%, the cell viability (Caco-2 [1]; 10 nM) is reported as 95.9% and the cell viability (Caco-2 [1]; 100 nM) is reported as 104%. For the same compound, the cell viability (Caco-2 [1]; 1000 nM) was 106%, the cell viability (Caco-2 [1]; 10000 nM) was 104% and the cell viability (Calu-3 [2]; 1 nM) was 93.3%. For the same compound, the cell viability (Calu-3 [2]; 10 nM) was 101%, the cell viability (Calu-3 [2]; 100 nM) was 96.3% and the cell viability (Calu-3 [2]; 1000 nM) was 105%. The cell viability (Calu-3 [2]; 10000 nM) was 114%, the cell viability (HepG2 [3]; 1 nM) was 93.9% and the cell viability (HepG2 [3]; 10 nM) was 101%. It also gave a cell viability (HepG2 [3]; 100 nM) of 98.9%, a cell viability (HepG2 [3]; 1000 nM) of 102% and a cell viability (HepG2 [3]; 10000 nM) of 93.1%. The cell viability (U2OS [4]; 1 nM) was 99.7%, the cell viability (U2OS [4]; 10 nM) was 94.7% and the cell viability (U2OS [4]; 100 nM) was 98.5%. For the same compound, the cell viability (U2OS [4]; 1000 nM) was 95.8%, the cell viability (U2OS [4]; 10000 nM) was 101% and the cell viability (Vero E6 [5]; 1 nM) was 91.3%. For the same compound, the cell viability (Vero E6 [5]; 10 nM) was 104%, the cell viability (Vero E6 [5]; 100 nM) was 95% and the cell viability (Vero E6 [5]; 1000 nM) was 101%. The cell viability (Vero E6 [5]; 10000 nM) was 94.8%, the “relative viability EC50” value (Caco-2 [6]) was over 10 µM and the “relative viability EC50” value (Calu-3 [7]) was over 10 µM. For the same compound, the “relative viability EC50” value (HepG2 [8]) was over 10 µM, the “relative viability EC50” value (U2OS [9]) was over 10 µM and the “relative viability EC50” value (Vero E6 [10]) was over 10 µM. It also gave a drug sensitivity score (Caco-2 [11]) of 0, a drug sensitivity score (Calu-3 [12]) of 0 and a drug sensitivity score (HepG2 [13]) of 0. It also gave a drug sensitivity score (U2OS [14]) of 0 and a drug sensitivity score (Vero E6 [15]) of 0.

— the supplement of paper PMC13380429
